{"source": "patent US6531292B1", "about": "“Genes and proteins controlling cholesterol synthesis” (The Regents of the University of California, priority 1995, dated 2003)", "key": {"mammalian HMG-R": {"tested_on": "mammalian HMG-R", "conditions": "mammalian cells, previous studies; cited from earlier work"}, "proteasome": {"tested_on": "proteasome", "conditions": "Jensen et al. 1995; cited from earlier work"}, "hrd mutant yeast strains": {"tested_on": "hrd mutant yeast strains", "assay": "Canavanine sensitivity of hrd mutant strains on solid medium", "assay_type": "cell-based", "conditions": "1.5 μg/ml canavanine, 30° C., one week; versus isogenic parent strain", "procedure": "FIG. 7. Proteasomal phenotypes associate with the hrd2-1 mutant. A) Canavanine sensitivity. Liquid cultures of strains with the indicated mutations, but otherwise isogenic, were spotted onto supplemented minimal medium ([…] of ˜0.5 OD) with or without 1.5 μg/ml canavanine as indicated, and allowed to grow at 30° C. for a week. B) Global ubiquitination. Lysates of the same strains were immunoblotted with affinity-purified anti-ubiquitin antibody to survey the degree of ubiquitination of cellular proteins. The line indicates the position of an 80 kD marker. Equal amounts of protein were loaded in each lane and the transfer efficiency from each lane was identical, as judged by India ink staining. The average increase in the amount of ubiquitin conjugates in the hrd2-1 mutant was approximately threefold over the amount in other strains. C) Complementation of the hrd2-1 mutant by the human TRAP-2 coding region. Strain RHY402 (hrd2-1, Ura^−) was transformed with parent vector pRH98-1, with a centromere plasmid containing the HRD2 gene (pRH482) or with a plasmid that expressed the TRAP-2 coding region from the GAPDH promoter (pRH492). These transformants are noted “vector, HRD2, and TRAP-2”, respectively. Each strain was then streaked on solid medium with 0 (top) or 200 μg/ml (bottom) and allowed to grow at 37° C. […]"}, "Hmg2p": {"target": "T1, Hmg2p (Saccharomyces cerevisiae, UniProt P12684)", "T1 construct": "Note the lowered mobility of the 6myc-Hmg2p protein as compare to the native Hmg2p; expressed in transfected cells; host or cells: S. cerevisiae strain RHY183 (hmg1 and hmg2 disrupted; single integrated HMG2 coding region under the GAPDH promoter)", "T1 sequence (P12684 1-1045)": "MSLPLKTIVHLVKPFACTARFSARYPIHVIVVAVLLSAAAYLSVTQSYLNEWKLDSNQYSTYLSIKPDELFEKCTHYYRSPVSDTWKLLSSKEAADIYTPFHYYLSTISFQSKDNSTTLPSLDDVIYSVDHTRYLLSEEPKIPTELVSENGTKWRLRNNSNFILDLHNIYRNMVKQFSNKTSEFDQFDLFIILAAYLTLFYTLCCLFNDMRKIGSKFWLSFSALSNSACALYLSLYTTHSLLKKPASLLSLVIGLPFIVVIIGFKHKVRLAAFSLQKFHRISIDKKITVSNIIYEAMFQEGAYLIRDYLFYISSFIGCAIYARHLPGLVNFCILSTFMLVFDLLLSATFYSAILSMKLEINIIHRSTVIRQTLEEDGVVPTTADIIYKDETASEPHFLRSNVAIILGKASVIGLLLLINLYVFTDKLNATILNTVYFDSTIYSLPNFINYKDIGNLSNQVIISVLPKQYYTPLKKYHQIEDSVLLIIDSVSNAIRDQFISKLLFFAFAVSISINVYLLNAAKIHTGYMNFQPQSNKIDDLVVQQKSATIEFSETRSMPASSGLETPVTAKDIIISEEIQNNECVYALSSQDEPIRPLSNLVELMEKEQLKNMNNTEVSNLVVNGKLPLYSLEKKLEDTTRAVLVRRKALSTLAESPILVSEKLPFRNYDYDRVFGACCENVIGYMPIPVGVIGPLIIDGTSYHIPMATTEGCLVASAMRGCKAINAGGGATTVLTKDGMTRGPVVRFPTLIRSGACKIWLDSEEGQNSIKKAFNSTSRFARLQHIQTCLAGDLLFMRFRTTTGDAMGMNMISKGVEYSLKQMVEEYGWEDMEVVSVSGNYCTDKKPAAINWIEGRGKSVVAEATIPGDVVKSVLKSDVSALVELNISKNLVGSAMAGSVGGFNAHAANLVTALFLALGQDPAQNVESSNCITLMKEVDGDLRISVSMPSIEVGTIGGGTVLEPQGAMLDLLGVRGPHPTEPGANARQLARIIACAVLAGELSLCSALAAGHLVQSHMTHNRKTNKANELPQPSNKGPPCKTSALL", "assay": "Hmg2p degradation by cycloheximide chase and stationary chase with immunoblotting", "assay_type": "cell-based, yeast", "conditions": "small dose of lovastatin (50 μg/ml) added to cultures", "excerpt": "(§1) FIG. 1. 6myc-Hmg2p: an unregulated variant of Hmg2p. A) schematic diagram of the unregulated 6myc-Hmg2p. […] The tagged protein was still capable of catalyzing the reduction of 3-hydroxy-3-methyl glutaryl CoA (HMG-CoA) to mevalonate (MEV), an essential intermediate of cholesterol biosynthesis. B) The degradation of 6myc-Hmg2p was not regulated by the mevalonate pathway. Cells expressing 6myc-Hmg2p (RHY244) or Hmg2p (RHY183) were examined for degradation of each protein by addition of cycloheximide at time zero and subsequent immunoblotting, as described by Hampton and Rine (J Cell Biol 125: 299-312, 1994). In the indicated samples, 50 μg/ml of lovastatin was added along with the cycloheximide at t=0. The 6myc-Hmg2planes (left panel) were immunoblotted using the 9E10 anti-myc antibody, and the Hmg2p lanes (right panel) were immunoblotted with affinity purified anti-Hmg1p protein. Each lane contained lysate from ˜0.2 O.D.600 units of cells. C) Test of 6myc-Hmg2p degradation by “stationary chase.” Log phase (OD600˜0.5) cultures of the strains used in Panel B were allowed to grow for an additional 15 hours at 30° C., and then subjected to lysis and immunoblotting to evaluate degradation of the expressed reductase (Hampton et al., Proc. Natl. Acad. Sci. USA. 93: 828-833, 1996). […]"}, "6myc-Hmg2p": {"tested_on": "6myc-Hmg2p", "assay": "6myc-Hmg2p degradation by cycloheximide chase and stationary chase with immunoblotting", "assay_type": "cell-based, yeast", "conditions": "small dose of lovastatin (50 μg/ml) added to cultures", "excerpt": "as §1"}, "[1]": {"tested_on": "strain expressing Hmg2p (RHY183)", "assay": "Lovastatin sensitivity (growth, plating efficiency) of strain expressing Hmg2p", "assay_type": "cell-based, yeast"}, "[2]": {"tested_on": "strain expressing 6myc-Hmg2p (RHY244)", "assay": "Lovastatin sensitivity (growth, plating efficiency) of strain expressing 6myc-Hmg2p", "assay_type": "cell-based, yeast", "conditions": "liquid medium, FIG. 1d"}}, "note": "Values joined by “and” are separate entries in the source; they are usually repeats but may differ in a detail not shown here. Equal entries are not always repeated. Square brackets hold non-standard residues; d marks the D form. Peptide text beside a SMILES is read from it. Nle = CCCC[C@H](N)C(=O)O"}
{"smiles": "CCCC[C@@H](C=O)NC(=O)[C@H](CC(C)C)NC(=O)[C@H](CC(C)C)NC(C)=O", "note": "[ALLN] (Ac-Leu-Leu-[Nle]-aldehyde)", "values": [{"measurement": "degradation of mammalian HMG-R", "setting": "mammalian HMG-R", "value": "inhibited"}, {"measurement": "inhibition of the proteasome", "setting": "proteasome", "value": "potent inhibitor"}]}
{"smiles": "N=C(N)NOCC[C@H](N)C(=O)O", "note": "[canavanine]", "values": [{"measurement": "sensitivity of hrd1 or hrd3 alleles to canavanine", "setting": "hrd mutant yeast strains", "value": "no more sensitive"}, {"measurement": "sensitivity of hrd2 mutants to canavanine", "setting": "hrd mutant yeast strains", "value": "heightened sensitivity"}]}
{"smiles": "CC[C@H](C)C(=O)O[C@H]1C[C@@H](C)C=C2C=C[C@H](C)[C@H](CC[C@@H]3C[C@@H](O)CC(=O)O3)[C@H]21", "note": "[lovastatin]", "values": [{"measurement": "effect on degradation of wild-type Hmg2p", "setting": "Hmg2p", "value": "dramatically stabilized"}, {"measurement": "effect on degradation of 6myc-Hmg2p", "setting": "6myc-Hmg2p", "value": "unaffected"}, {"measurement": "growth of strain", "setting": "[1]; hmg1::LYS2 hmg2::HIS3 strain with single integrated HMG2 driven by GAPDH promoter, dose-dependent", "value": "blocked"}, {"measurement": "plating efficiency of surviving colonies on lovastatin medium", "setting": "[1]; non-mutagenized cells expressing wild-type Hmg2p, solid lovastatin-containing medium", "value": "0.1-1% and ~1%"}, {"measurement": "lovastatin sensitivity relative to isogenic strain expressing HMG2", "setting": "[2]", "value": "more sensitive"}]}
